Experimental data from patent US20240279207A1, “SUBSTITUTED ACYL SULFONAMIDES FOR TREATING CANCER” (The Broad Institute, Inc., priority 2020, published 2024).

Legend:
MDA-MB-436 cells = test: MDA-MB-436 proliferation assay (negative control cell line); type: cell-based; conditions: Homo sapiens, 144 h, Alamar Blue, read-out: MDA-MB-436 proliferation assay, EC50 [M] (arithmetic mean)
Excerpt: For compound characterization cell survival assays were routinely run in two cell lines. ZR-75-1 is a breast carcinoma cell line containing a focal KAT6A amplification and high KAT6A protein expression. Proliferation of this cell line is inhibited upon treatment with KAT6A inhibitors. As a negative control cell line MDA-MB-436 were used. These cells carry a […] deletion of the KAT6A gene, have a low KAT6A protein expression and are not growth inhibited upon treatment with KAT6A inhibitors.
For measurements cell lines were plated at the below indicated concentration per […] in 96-well plates in a humidified incubator at 37° C. and 5% CO2.
MDA-MB-436 (CLS, 300278; breast adenocarcinoma); 3000 cells per well; culture medium: DMEM/Ham's F12 (Biochrom #FG 4815) medium containing 2.5% FBS (Biochrom #S0615).
Each sample was prepared as triplicate and rim wells were excluded. Plates were incubated at 37° C. and 5% CO2 for 144 h. Cell viability was measured by adding 10 μL of Alamar Blue Reagent (Invitrogen #DAL 1100) and plates were incubated for 2 h at 37° C. and 5% CO2. Fluorescence was measured at 590 nm wavelength with a Tecan Spark or Victor X3 MTP-Reader (PerkinElmer).

[1] = tested on: ESR1 transcription in MVLN cells; test: MVLN reporter assay: repression of ESR1 transcription (luciferase signal); type: cell-based; conditions: Homo sapiens, MVLN, 24 h, luciferase signal after 24 h, read-out: MVLN reporter assay, IC50 [M] (arithmetic mean)
How it was run: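 MVLN cells, expressing ER and stably carrying a vitellogenin A2 ERE-luciferase reporter, treated with compound in duplicate; luciferase read after 24 h with Steadylite plus. Cell density checked in parallel by Alamar Blue fluorescence (530/590 nm, 2 h) before the luciferase read.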

[2] = target: T1, Recombinant human His-tagged Kat6a protein (amino acids 194-810) (Homo sapiens, UniProt Q92794); test: Kat6a activity assay (TR-FRET, acetylation of Histone-H4-derived peptide); type: biochemical; conditions: 60 mins at 22° C., 220 nM H4 peptide, 600 nM Acetyl Coenzyme A, read-out: KAT6A - DPF/HAT domain IC50 [mol/l] (arithmetic mean)
T1 construct: Kat6a protein (amino acids 194-810); His
T1 sequence (Q92794 194-810): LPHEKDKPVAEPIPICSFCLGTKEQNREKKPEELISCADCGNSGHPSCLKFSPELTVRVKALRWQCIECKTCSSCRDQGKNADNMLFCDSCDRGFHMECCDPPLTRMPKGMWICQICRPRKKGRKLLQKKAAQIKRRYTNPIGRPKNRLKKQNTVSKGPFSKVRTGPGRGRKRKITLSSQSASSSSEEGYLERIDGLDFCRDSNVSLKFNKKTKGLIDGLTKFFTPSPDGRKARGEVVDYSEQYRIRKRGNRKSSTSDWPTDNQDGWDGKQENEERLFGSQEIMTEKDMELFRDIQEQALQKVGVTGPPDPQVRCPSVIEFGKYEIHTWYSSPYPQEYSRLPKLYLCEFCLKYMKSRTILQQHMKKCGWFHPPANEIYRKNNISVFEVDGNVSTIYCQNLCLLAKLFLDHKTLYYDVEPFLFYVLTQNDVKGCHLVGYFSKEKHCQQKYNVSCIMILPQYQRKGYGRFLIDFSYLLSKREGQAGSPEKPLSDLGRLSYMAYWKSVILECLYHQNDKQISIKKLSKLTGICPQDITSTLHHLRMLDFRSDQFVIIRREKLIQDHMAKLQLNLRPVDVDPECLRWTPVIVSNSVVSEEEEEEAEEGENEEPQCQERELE

SMILES	EC50 (MDA-MB-436 cells)	IC50 [1]	IC50 [2]
COc1c(S(=O)(=O)NC(=O)c2cc3c(F)cc(N4CCC4)cc3o2)ccc(Cl)c1Cl [Example 183, 6-(Azetidin-1-yl)-N-(3,4-dichloro-2-methoxybenzene-1-sulfonyl)-4-fluoro-1-benzofuran-2-carboxamide]		9.24e-07 M	82.8 nM
O=C(NS(=O)(=O)c1cnn2c1OCCC2)c1cc2c(F)cc(N3CCC3)cc2o1 [Example 184, 6-(Azetidin-1-yl)-N-(6,7-dihydro-5H-pyrazolo[5,1-b][1,3]oxazine-3-sulfonyl)-4-fluoro-1-benzofuran-2-carboxamide]		5.21e-06 M	294 nM
CC(=O)Nc1ccc(S(=O)(=O)NC(=O)c2cc3c(F)cc(N4CCC4)cc3o2)c2ccccc12 [Example 185, N-(4-Aacetamidonaphthalene-1-sulfonyl)-6-(azetidin-1-yl)-4-fluoro-1-benzofuran-2-carboxamide]		9.61e-06 M	195 nM
O=C(NS(=O)(=O)c1cnc2ccccn12)c1cc2c(F)cc(N3CCC3)cc2o1 [Example 186, 6-(Azetidin-1-yl)-4-fluoro-N-(imidazo[1,2-a]pyridine-3-sulfonyl)-1-benzofuran-2-carboxamide]		1.7e-05 M	1630 nM
O=C(NS(=O)(=O)c1cccc2c(N3CCOCC3)cccc12)c1cc2c(F)cc(N3CCC3)cc2o1 [Example 188, 6-(Azetidin-1-yl)-4-fluoro-N-[5-(morpholin-4-yl)naphthalene-1-sulfonyl]-1-benzofuran-2-carboxamide]		2.55e-06 M	132 nM
Cc1cc(C(C)(C)C)cc(S(=O)(=O)NC(=O)c2cc3c(F)cc(N4CCC4)cc3o2)c1C [Example 189, 6-(Azetidin-1-yl)-N-(5-tert-butyl-2,3-dimethylbenzene-1-sulfonyl)-4-fluoro-1-benzofuran-2-carboxamide]		1.3e-07 M	8.59 nM
CC1(C)COc2ccc(S(=O)(=O)NC(=O)c3cc4c(F)cc(N5CCC5)cc4o3)cc21 [Example 190, 6-(Azetidin-1-yl)-N-(3,3-dimethyl-2,3-dihydro-1-benzofuran-5-sulfonyl)-4-fluoro-1-benzofuran-2-carboxamide]		1.93e-07 M	72.9 nM
COc1ccc(-c2c(C)noc2C)cc1S(=O)(=O)NC(=O)c1cc2c(F)cc(N3CCC3)cc2o1 [Example 194, 6-(Azetidin-1-yl)-N-[5-(3,5-dimethyl-1,2-oxazol-4-yl)-2-methoxybenzene-1-sulfonyl]-4-fluoro-1-benzofuran-2-carboxamide]		7.76e-08 M	4.19 nM
COc1ccc(-c2cnn(C)c2)cc1S(=O)(=O)NC(=O)c1cc2c(F)cc(N3CCC3)cc2o1 [Example 199, 6-(Azetidin-1-yl)-4-fluoro-N-[2-methoxy-5-(1-methyl-1H-pyrazol-4-yl)benzene-1-sulfonyl]-1-benzofuran-2-carboxamide]		5.49e-07 M	32.3 nM
COc1ccc(N2CCN(C)CC2)cc1S(=O)(=O)NC(=O)c1cc2c(F)cc(N3CCC3)cc2o1 [Example 202, 6-(Azetidin-1-yl)-4-fluoro-N-[2-methoxy-5-(4-methylpiperazin-1-yl)benzene-1-sulfonyl]-1-benzofuran-2-carboxamide]		1.04e-06 M	84.5 nM
COc1ccc(C2=CCN(C)CC2)cc1S(=O)(=O)NC(=O)c1cc2c(F)cc(N3CCC3)cc2o1 [Example 203, 6-(Azetidin-1-yl)-4-fluoro-N-[2-methoxy-5-(1-methyl-1,2,3,6-tetrahydropyridin-4-yl)benzene-1-sulfonyl]-1-benzofuran-2-carboxamide]		3.78e-06 M	156 nM
CCOc1ccc(F)cc1S(=O)(=O)NC(=O)c1cc2c(F)cc(N3CCC3)cc2o1 [Example 210, 6-(Azetidin-1-yl)-N-(2-ethoxy-5-fluoro-phenyl)sulfonyl-4-fluoro-benzofuran-2-carboxamide]		1.13e-07 M	52.6 nM
CCOc1ccc(Oc2ccccc2)cc1S(=O)(=O)NC(=O)c1cc2c(F)cc(N3CCC3)cc2o1 [Example 211, 6-(Azetidin-1-yl)-N-(2-ethoxy-5-phenoxy-phenyl)sulfonyl-4-fluoro-benzofuran-2-carboxamide]		2.44e-07 M	7.58 nM
CCOc1ccc(OC(F)(F)F)cc1S(=O)(=O)NC(=O)c1cc2c(F)cc(N3CCC3)cc2o1 [Example 212, 6-(Azetidin-1-yl)-N-[2-ethoxy-5-(trifluoromethoxy)phenyl]sulfonyl-4-fluoro-benzofuran-2-carboxamide]		1.59e-07 M	36.4 nM
CC(C)c1ccc(OC2CCC2)c(S(=O)(=O)NC(=O)c2cc3c(F)cc(N4CCC4)cc3o2)c1 [Example 230, 6-(Azetidin-1-yl)-N-[(2-cyclobutoxy-5-isopropylphenyl)sulfonyl]-4-fluorobenzofuran-2-carboxamide]		8.72e-08 M	7.71 nM

More lines, now with the values ahead:

EC50 (MDA-MB-436 cells)	IC50 [1]	IC50 [2]	SMILES
> 2e-05 M	6.23e-06 M	982 nM	CC1CCN1c1cc(F)c2cc(C(=O)NS(=O)(=O)c3ccccc3)oc2c1 (racemic) [Example 220, N-(Benzenesulfonyl)-4-fluoro-6-(2-methylazetidin-1-yl)benzofuran-2-carboxamide (rac)]
> 2e-05 M	3.82e-07 M	61.5 nM	Cc1ccc2cccc(S(=O)(=O)NC(=O)c3cc4c(F)cc(N5CCC5C)cc4o3)c2n1 (racemic) [Example 221, 4-Fluoro-6-(2-methylazetidin-1-yl)-N-[(2-methyl-8-quinolyl)sulfonyl]benzofuran-2-carboxamide (rac)]
> 2e-05 M	1.44e-06 M	129 nM	CC1CCN1c1cc(F)c2cc(C(=O)NS(=O)(=O)c3ccccc3-c3ccccc3)oc2c1 (racemic) [Example 222, 4-Fluoro-6-(2-methylazetidin-1-yl)-N-(2-phenylphenyl)sulfonyl-benzofuran-2-carboxamide (rac)]
> 2e-05 M	7.22e-07 M	189 nM	CCOc1ccccc1S(=O)(=O)NC(=O)c1cc2c(F)cc(N3CCC3C)cc2o1 (racemic) [Example 223, N-(2-Ethoxyphenyl)sulfonyl-4-fluoro-6-(2-methylazetidin-1-yl)benzofuran-2-carboxamide (rac)]
	1.85e-05 M	1530 nM	O=C(NS(=O)(=O)c1cccc2cnccc12)c1cc2c(F)cc(N3CCC3)cc2o1 [Example 187, 6-(Azetidin-1-yl)-4-fluoro-N-(isoquinoline-5-sulfonyl)-1-benzofuran-2-carboxamide]
	4.99e-06 M	301 nM	Cc1ccc(S(=O)(=O)NC(=O)c2cc3c(F)cc(N4CCC4)cc3o2)c2ccncc12 [Example 191, 6-(Azetidin-1-yl)-4-fluoro-N-(8-methylisoquinoline-5-sulfonyl)-1-benzofuran-2-carboxamide]
	> 2e-05 M	2000 nM	COC(=O)Nc1cccc2c(S(=O)(=O)NC(=O)c3cc4c(F)cc(N5CCC5)cc4o3)cccc12 [Example 192, Methyl (5-{[6-(azetidin-1-yl)-4-fluoro-1-benzofuran-2-carbonyl]sulfamoyl}naphthalen-1-yl)carbamate]
	> 2e-05 M	4820 nM	Cc1cncc2cccc(S(=O)(=O)NC(=O)c3cc4c(F)cc(N5CCC5)cc4o3)c12 [Example 193, 6-(Azetidin-1-yl)-4-fluoro-N-(4-methylisoquinoline-5-sulfonyl)-1-benzofuran-2-carboxamide]
	2.95e-07 M	11.6 nM	COc1ccc(-c2cccc(F)c2)cc1S(=O)(=O)NC(=O)c1cc2c(F)cc(N3CCC3)cc2o1 [Example 198, 6-(Azetidin-1-yl)-4-fluoro-N-(3′-fluoro-4-methoxy[1,1′-biphenyl]-3-sulfonyl)-1-benzofuran-2-carboxamide]
	5.5e-07 M	34.1 nM	COc1ccc(-c2cccnc2)cc1S(=O)(=O)NC(=O)c1cc2c(F)cc(N3CCC3)cc2o1 [Example 200, 6-(Azetidin-1-yl)-4-fluoro-N-[2-methoxy-5-(pyridin-3-yl)benzene-1-sulfonyl]-1-benzofuran-2-carboxamide]
	4.44e-07 M	110 nM	CCOc1c(F)cccc1S(=O)(=O)NC(=O)c1cc2c(F)cc(N3CCC3)cc2o1 [Example 206, 6-(azetidin-1-yl)-N-(2-ethoxy-3-fluoro-phenyl)sulfonyl-4-fluoro-benzofuran-2-carboxamide]
	7.78e-08 M	45.4 nM	CCOc1cc(F)ccc1S(=O)(=O)NC(=O)c1cc2c(F)cc(N3CCC3)cc2o1 [Example 208, 6-(Azetidin-1-yl)-N-(2-ethoxy-4-fluoro-phenyl)sulfonyl-4-fluoro-benzofuran-2-carboxamide]
> 2e-05 M	1.05e-05 M		CC1(C)CCN1c1cc(F)c2cc(C(=O)NS(=O)(=O)c3ccccc3-c3ccccc3)oc2c1 [Example 217, 6-(2,2-Dimethylazetidin-1-yl)-4-fluoro-N-(2-phenylphenyl)sulfonyl-benzofuran-2-carboxamide]
